Results: patent EP4818192A1, “USE OF GRP78-LIKE PEPTIDES” (priority 2023, dated 2026)
Ends that are not written are not given here.

test system: periodontal ligament cells (rPDL)
Experimental: A total of 5.0 × 10^4 cells were seeded, and the culture medium was removed and the cells were washed twice with DPBS. The prepared fluorescent peptides were mixed with serum-free culture medium at a concentration of 200 µg/mL and incubated for 1 hour. After 1 hour of treatment, the cells were washed five times with DPBS and mounted with a mounting solution containing DAPI.

Row | cell permeability | Sequence
1 | high cell permeability | TFAPEEISAMVLTK [SEQ ID NO: 1, TFAPEEISAMVLTK]
2 | high cell permeability | MVLTKMKETAEAYLGKKVTH [SEQ ID NO: 3]
3 | high cell permeability | MEHFIKLYKKKTGKDVRK [SEQ ID NO: 4, MEHFIKLYKKKTGKDVRK]
